From PMC11901381 (Future Medicinal Chemistry, 2025)

Columns and labels:
[1] = General; type: cell-based; details: African green monkey, Vero cells (monkey kidney epithelial cells)
[2] = Host cell toxicity, resazurin assay; type: cell-based; details: human
[3] = test system: L. donovani strain 9515 promastigotes; assay: Antipromastigote resazurin assay; type: cell-based, Leishmania donovani; details: for AG (activity gain): IC50 (1)/IC50 (compd.), L. donovani promastigotes; for IC50: Leishmania donovani, read-out: Antipromastigote activity IC50; for SI1: SI1 = IC50 Vero/IC50 promastigote, L. donovani
[4] = test system: L. donovani strain 9515 intramacrophage amastigotes; assay: Intramacrophage antileishmanial resazurin assay; type: cell-based, Leishmania donovani; details: for SI2: SI2 = IC50 Vero/static IC50 amastigote; for SI2 / SI3 / SpI1 / SpI2: L. donovani; for SI3: SI3 = IC50 Vero/cidal IC50 amastigote; for SpI1: SpI1 = IC50 promastigote/static IC50 amastigote; for SpI2: SpI2 = IC50 promastigote/cidal IC50 amastigote; for Static anti-amastigote activity IC50: L. donovani 9515 amastigotes in THP-1 macrophages, 24 hours after lysis
[5] = test system: L. major strain NIH S promastigotes; assay: Antipromastigote resazurin assay; type: cell-based, Leishmania major; details: for IC50: Leishmania major, read-out: Antipromastigote activity IC50; for AG (activity gain): IC50 (1)/IC50 (compd.), L. major promastigotes; for SI4: SI4 = IC50 Vero/IC50 promastigote, L. major
[6] = test system: L. major strain NIH S intramacrophage amastigotes; assay: Intramacrophage antileishmanial resazurin assay; type: cell-based, Leishmania major; details: for SI5: SI5 = IC50 Vero/static IC50 amastigote; for SI5 / SpI3 / SpI4 / SI6: L. major; for SpI3: SpI3 = IC50 promastigote/static IC50 amastigote; for SpI4: SpI4 = IC50 promastigote/cidal IC50 amastigote; for SI6: SI6 = IC50 Vero/cidal IC50 amastigote; for Static anti-amastigote activity IC50: L. major NIH S amastigotes in THP-1 macrophages, 24 hours after lysis
[7] = test system: T. brucei brucei strain GUTat3.1; assay: Antitrypanosomal assay; type: cell-based, Trypanosoma brucei brucei; details: for IC50: Trypanosoma brucei, read-out: Antitrypomastigote activity IC50 ± SD Tbb GuTat3.1
[8] = Animal cytotoxicity, CCK-8 assay; type: cell-based, bovine; details: bovine, MDBK (Madin-Darby bovine kidney) cells
[9] = test system: T. congolense strain IL3000; assay: Antitrypanosomal assay; type: cell-based, Trypanosoma congolense; details: IC50 of MDBK/IC50 of trypanosome
[10] = Solubility observed during sample preparation and screening; type: physicochemical; details: for Solubility in 100% DMSO: 100% dimethyl sulfoxide used for sample preparation
[11] = test system: T. brucei gambiense strain IL1922; assay: Antitrypanosomal assay; type: cell-based, Trypanosoma brucei gambiense; details: IC50 of MDBK/IC50 of trypanosome
[12] = test system: T. brucei rhodesiense strain IL1501; assay: Antitrypanosomal assay; type: cell-based, Trypanosoma brucei rhodesiense; details: IC50 of MDBK/IC50 of trypanosome

Row | IC50 [1] [µM] | SMILES | IC50 [2] [µM] | IC50 [3] [µM] | IC50 [5] [µM] | SI5 [6] | SpI3 [6] | SpI4 [6] | IC50 [7] [µM] | IC50 [8] [µM] | SI6 [6] | further results
1 | 98.2 ± 1.62 | Cc1ccc(Cn2cc(/C=C3\SC(=S)NC3=O)c3cc([N+](=O)[O-])ccc32)cc1 [3d, (Z)-5-{[1-(4-Methylbenzyl)-5-nitro-1 H-indol-3-yl]methylene}-2-thioxothiazolidin-4-one] | > 100 | 87.4 ± 17.8 | > 100 | 78 | 79 | 107 | > 70 |  |  | AG (activity gain) [3]: 0.6; SI1 [3]: 1; SI2 [4]: 19; SI3 [4]: 17; SpI1 [4]: 17; SpI2 [4]: 15
2 | > 100 | O=C1CSC(=S)N1/N=C/c1c[nH]c2ccc([N+](=O)[O-])cc12 [4a, (E)-3-{[(5-Nitro-1 H-indol-3-yl)methylene]amino}-2-thioxothiazolidin-4-one] |  | > 100 | > 100 |  |  |  | > 61 | 66.8 ± 9.55 |  | 
3 |  | Cc1ccc(C(=O)Nc2ccc(S(=O)(=O)O)c3cc(S(=O)(=O)O)cc(S(=O)(=O)O)c23)cc1NC(=O)c1cccc(NC(=O)Nc2cccc(C(=O)Nc3cc(C(=O)Nc4ccc(S(=O)(=O)O)c5cc(S(=O)(=O)O)cc(S(=O)(=O)O)c45)ccc3C)c2)c1 [Suramin, suramin, reference compound] |  |  |  |  |  |  | 0.07 ± 0.02 | > 70 |  | 
4 | > 100 | C#CCn1cc(C=O)c2cc([N+](=O)[O-])ccc21 [2b, 5-Nitro-1-(prop-2-yn-1-yl)-1 H-indole-3-carbaldehyde] | 91.1 ± 12.6 | > 100 | > 100 | 41 | 41 | 42 | > 110 | > 438 | 41 | 
5 | > 100 | O=Cc1c[nH]c2ccc([N+](=O)[O-])cc12 [2a, 5-Nitro-1H-indole-3-carbaldehyde] |  | > 100 | > 100 |  |  |  | > 131 | > 526 |  | 
6 | 58.8 ± 13.2 | O=C1CSC(=S)N1/N=C/c1cn(Cc2cccc(Cl)c2)c2ccc([N+](=O)[O-])cc12 [4f, (E)-3-({[1-(3-Chlorobenzyl)-5-nitro-1 H-indol-3-yl]methylene}amino)-2-thioxothiazolidin-4-one] |  | > 100 | > 100 |  |  |  | > 56 |  |  | 
7 | 17.4 ± 1.33 | O=C1NC(=S)S/C1=C\c1cn(Cc2ccc(F)cc2)c2ccc([N+](=O)[O-])cc12 [3e, (Z)-5-{[1-(4-Fluorobenzyl)-5-nitro-1H -indol-3-yl]methylene}-2-thioxothiazolidin-4-one] |  | > 100 | > 100 |  |  |  | > 63 | 17 ± 2.65 |  | SI Tc IL3000 [9]: 7; Solubility in 100% DMSO [10]: poor solubility
8 | > 100 | C#CCn1cc(/C=N/N2C(=O)CSC2=S)c2cc([N+](=O)[O-])ccc21 [4b, (E)-3-({[5-Nitro-1-(prop-2-yn-1-yl)-1 H-indol-3-yl]methylene}amino)-2-thioxothiazolidin-4-one] | > 100 | > 100 | > 100 | 11 | 11 | 12 | > 59 |  | 12 | Solubility in aqueous screening medium [10]: poor solubility
9 | 79.5 ± 14.9 | O=[N+]([O-])c1ccc2[nH]ccc2c1 [compound 1, 5-nitroindole] | > 100 | 50.3 ± 1.36 | 45.8 ± 5.47 |  |  |  | > 154 |  |  | AG (activity gain) [3]: 1; SI1 [3]: 2; Static anti-amastigote activity IC50 [4]: inactive; AG (activity gain) [5]: 1; SI4 [5]: 2; Static anti-amastigote activity IC50 [6]: inactive
10 | > 100 | O=C1CSC(=S)N1/N=C/c1cn(Cc2ccccc2)c2ccc([N+](=O)[O-])cc12 [4c, (E)-3-{[(1-Benzyl-5-nitro-1 H-indol-3-yl)methylene]amino}-2-thioxothiazolidin-4-one] | > 100 | > 100 | > 100 | 38 | 38 | 41 | > 60 |  | 41 | 
11 | 22.2 ± 1.65 | O=C1NC(=S)S/C1=C\c1cn(Cc2cccc(Cl)c2)c2ccc([N+](=O)[O-])cc12 [3f, (Z)-5-{[1-(3-Chlorobenzyl)-5-nitro-1 H-indol-3-yl]methylene}-2-thioxothiazolidin-4-one] | > 100 | 19.1 ± 3.7 | 17.7 ± 0.9 | 5 | 4 | 7 | > 61 |  | 8 | AG (activity gain) [3]: 2.6; SI1 [3]: 1; SI2 [4]: 12; SI3 [4]: 11; SpI1 [4]: 10; SpI2 [4]: 10; AG (activity gain) [5]: 2.6; SI4 [5]: 1; Solubility in 100% DMSO [10]: poor solubility
12 |  | C[C@@H]1[C@H](O)[C@@H](C)/C=C/C=C/C=C/C=C/C=C/C=C/C=C/[C@H](O[C@@H]2O[C@H](C)[C@@H](O)[C@H](N)[C@@H]2O)C[C@@H]2O[C@](O)(C[C@@H](O)C[C@@H](O)[C@H](O)CC[C@@H](O)C[C@@H](O)CC(=O)O[C@H]1C)C[C@H](O)[C@H]2C(=O)O [AMB, amphotericin B, reference compound] |  | 0.02 ± 0.009 |  |  | 0.1 | 0.2 |  |  |  | SpI1 [4]: 0.40; SpI2 [4]: 0.04
13 | > 100 | Cc1ccc(Cn2cc(/C=N/N3C(=O)CSC3=S)c3cc([N+](=O)[O-])ccc32)cc1 [4d, (E)-3-({[1-(4-Methylbenzyl)-5-nitro-1H -indol-3-yl]methylene}amino)-2-thioxothiazolidin-4-one] |  | > 100 | 70.9 ± 14.3 |  |  |  | > 58 |  |  | Static anti-amastigote activity IC50 [4]: inactive; AG (activity gain) [5]: 0.7; SI4 [5]: 1; Static anti-amastigote activity IC50 [6]: inactive; Solubility in aqueous screening medium [10]: poor solubility
14 | > 100 | O=C1CSC(=S)N1/N=C/c1cn(Cc2ccc(F)cc2)c2ccc([N+](=O)[O-])cc12 [4e, (E)-3-({[1-(4-Fluorobenzyl)-5-nitro-1 H-indol-3-yl]methylene}amino)-2-thioxothiazolidin-4-one] |  | > 100 | > 100 |  |  |  | 55.3 ± 4.84 | 22.4 ± 5.37 |  | SI Tbg IL1922 [11]: 0; SI Tbr IL1501 [12]: 0; SI Tbb GuTat3.1 ([7]; IC50 of MDBK/IC50 of trypanosome): 0; Solubility in aqueous screening medium [10]: poor solubility
15 | 18.8 ± 3.22 | O=C1NC(=S)S/C1=C\c1cn(Cc2ccccc2)c2ccc([N+](=O)[O-])cc12 [3c, (Z)-5-[(1-Benzyl-5-nitro-1 H-indol-3-yl)methylene]-2-thioxothiazolidin-4-one] | > 100 | > 100 | > 100 | 35 | 189 | 196 | > 73 | 99.13 ± 0.96 | 37 | SI2 [4]: 6; SI3 [4]: 6; SpI1 [4]: 34; SpI2 [4]: 33; SI Tc IL3000 [9]: 5

Row | SMILES | IC50 [1] [µM] | IC50 [2] [µM] | IC50 [3] [µM] | IC50 [5] [µM] | SI5 [6] | SpI3 [6] | SpI4 [6] | IC50 [7] [µM] | IC50 [8] [µM] | SI6 [6] | further results
16 | O=Cc1cn(Cc2ccccc2)c2ccc([N+](=O)[O-])cc12 [2c, 1-Benzyl-5-nitro-1 H-indole-3-carbaldehyde] | > 100 | > 100 |  |  |  |  |  | > 89 | > 357 |  | SI2 [4]: 28; SI3 [4]: 28; SpI1 [4]: 28; SpI2 [4]: 28
17 | O=Cc1cn(Cc2cccc(Cl)c2)c2ccc([N+](=O)[O-])cc12 [2f, 1-(3-Chlorobenzyl)-5-nitro-1 H-indole-3-carbaldehyde] | 99.91 ± 0.13 | > 100 |  |  | 10 |  | 1 | > 79 |  | 7 | AG (activity gain) [5]: 5.3; SI4 [5]: 11
18 | Cc1ccc(Cn2cc(C=O)c3cc([N+](=O)[O-])ccc32)cc1 [2d, 1-(4-Methylbenzyl)-5-nitro-1 H-indole-3-carbaldehyde] | 96.9 ± 5.35 | > 100 |  |  |  |  |  | > 85 |  |  | AG (activity gain) [3]: 61; SI1 [3]: 117; AG (activity gain) [5]: 32.3; SI4 [5]: 68
19 | CC[C@H]1CN2CCc3cc(OC)c(OC)cc3[C@@H]2C[C@@H]1C[C@H]1NCCc2cc(OC)c(OC)cc21 [Em, emetine, reference compound] | 0.09 ± 0.009 |  |  |  |  |  |  |  |  |  | 
